{"source": "patent EP1201237A1", "about": "“Composition comprising an amide or a dialkylsulphoxide derivative for the treatment of cancer” (Virodene Pharmaceutical Holdings (PTY) Ltd., priority 2000, dated 2002)", "key": {"[1]": {"tested_on": "HOC-7 ovarian adenocarcinoma cells", "test": "ELISA of antigen expression in HOC-7 cells", "type": "cell-based, human", "description": "(§1) (HOC-7) to a malignant cell. This was also found in human colon carcinoma. (Factor - beta 1 is growth factor, that can be up regulated or transformed in human cells.)\n(§2) Exposure of HOC-7 ovarian adenocarcinoma cells to regulators of cell differentiation caused inducer-dependent alterations of the antigenic pattern of the cells. […] Stimulation of fibronectin was also seen after addition of transforming growth factor (TGF) - beta 1. […] CA 125, Fibronectin, and desmoplakins I and II. TGF - beta 1 stimulated fibronectin and desmoplakins I and II only."}, "[2]": {"conditions": "in vivo; cited from earlier work"}, "EGF-transfected cells": {"tested_on": "EGF-transfected cells", "test": "Properties of EGF-transfected FR3T3 fibroblasts", "type": "cell-based"}, "FR3T3 fibroblasts": {"tested_on": "FR3T3 fibroblasts", "test": "EGF binding and EGF secretion in transfected FR3T3 lines and control cells", "type": "cell-based", "description": "(§3) The high proliferation rate of the ras-3 cells was associated with elevated expression of protein B23. The 19-3 cells. But not the ras-3 cells, expressed cell surface fibronectin."}, "myc onco-proteins": {"tested_on": "myc onco-proteins", "test": "In-vitro studies in cell cultures: myc expression", "type": "cell-based", "description": "(§4) Instead of a piling pattern, mono layers of cells in regular parallel orientation formed that were typical of non-malignant fibroblasts. […] Focal Adhesion Kinase (FAK) is activated in response to receptor activation at focal adhesion sites. FAK is a substrate for the oncogenic forms of the src-family of tyrosine kinases. The action of polar agents on oncogenic expression is believed to be the induction of cancer cells to become more benign. It would seem reasonable that to convert a malignant cell to a benign phenotype, there should be some modulation of gene expression causing malignancy in the first place. In the HL-60 human promyelocytic leukemia cells, dimethylsulfoxide (DMSO) reduced the expression of c-myc oncogenes by 80 to 90%. Some brain tumours are regulated by glial-binding growth factors such as Epidermal Growth Factor (EGF) and Platelet Derived Growth Factor (PDGF) both of which are related to oncogenes. The PDGF β-chain gene is the cellular homologue and proto-oncogene of the viral […] oncogene. Cell maturation induced by polar agents (N-MF) as single agents is most likely to be effective in Neuroblastoma and Glioblastoma (as well as leukemia and melanoma). Polar agents easily penetrate the blood brain barrier and sensitize tumour cells to both X-radiation and cis-platinum. […]"}, "[3]": {"conditions": "inhalation study with rabbits; cited from earlier work"}, "Karposi Sarcoma": {"tested_on": "Karposi Sarcoma", "test": "Example 3: skin patch treatment of an AIDS patient with Karposi Sarcoma", "type": "in vivo, human", "description": "A third patient was a person suffering from full blown AIDS. The patient had seven tumours which were diagnosed as Karposi Sarcoma."}, "DNA sequences": {"tested_on": "DNA sequences", "test": "In-vitro studies in cell cultures: effect on DNA", "type": "cell-based", "description": "as §4"}, "[4]": {"conditions": "oral study; cited from earlier work"}, "[5]": {"tested_on": "metastasised fourth stage breast cancer", "test": "Example 1: skin patch treatment of a breast cancer patient", "type": "in vivo, human", "description": "The patient was a person suffering from metastasised fourth stage breast cancer. The primary cancer was in the left breast and had spread to the right breast. The patient had auxiliary left and right swollen lymph glands under both arms, swelling of lymph glands under the chin and a secondary tumour near the crown of the head protruding from the skull which was four fingertips across. The patient was dehydrated and unable to keep down food or water.\nA skin patch was applied to the skin adjacent the tumour for six hours. […] The gel served to prevent leakage of liquid DMF from the patches.\nEach patch was applied for a period of 6 hours, on alternate days for one week followed by a one week break."}, "[6]": {"conditions": "several 90-day studies; cited from earlier work"}, "ras-transfected cells": {"tested_on": "ras-transfected cells", "test": "Properties of ras-transfected FR3T3 fibroblasts", "type": "cell-based", "description": "as §3"}, "[7]": {"test": "DMF level in the patient's blood during patch treatment", "type": "in vivo, human", "conditions": "patches of about 7,064 g DMF", "protocol": "For a patient weighing about 60 kg, an amount of about 14 g over a period of 12 hours is required to produce a level of 100 ppm. […] Absorption capability varies from patient to patient depending on factors such as skin-type and skin thickness.\nDaily full clinical and psychological evaluations were also conducted."}, "[8]": {"test": "Toxicity of DMF by route of administration", "type": "in vivo", "conditions": "subcutaneous versus oral"}, "[9]": {"test": "Single dose study of disposition, safety, tolerability and pharmacokinetics of virodene P058 in healthy volunteers", "type": "in vivo", "conditions": "7,06 g of DMF transdermally once a week for 8 hours, human subjects", "description": "A draft interim clinical safety report produced by Guy's Drug Research Unit of Kings College and St Thomas' Hospitals' Medical and Dental School is set out below.\nA single dose study of the disposition, safety, tolerability and pharmacokinetics of virodene P058 in healthy volunteers.\n• ° 5 subjects dosed on day 1 (subjects 001 - 005) • ° 5 subjects dosed on day 14 (subjects 006 - 010) • ° No withdrawals • ° Final follow up for subjects 001 - 005 occurred on day 15 • ° Final follow up for subjects 006 - 010 due on day 28 Table 1.1 -\nThe first patch was applied at 10h00 on day 1 for subjects 001 - 005 and at 09h20 on […] for subjects 006 - 010 with 10 minute intervals between dosing.\n• ° Laboratory Safety Values: No clinically significant changes observed for biochemistry, liver function tests, haematology or coagulation parameters. • ° Vital Signs - There were no obvious clinically significant changes observed • ° Continuous lead [I monitoring - No clinically significant changes observed] • ° 12 kead ECG - No clinically significant changes observed • ° Adverse events are reported in Table 1.2"}, "non-Hodgkins Lymphoma": {"tested_on": "non-Hodgkins Lymphoma", "test": "Example 4: skin patch treatment of a patient with non-Hodgkins Lymphoma", "type": "in vivo, human", "description": "A fourth patient was an adult diagnosed with non-Hodgkins Lymphoma. The patient had not been on chemotherapy and was HIV positive."}, "Mama Carcinoma": {"tested_on": "Mama Carcinoma", "test": "Example 2: skin patch treatment of a patient with Mama Carcinoma", "type": "in vivo, human", "conditions": "three weekly treatments, 7.04g patches for 4 hours"}, "HOC-7 cells": {"tested_on": "HOC-7 cells", "test": "Immunophenotype and growth of HOC-7 cells", "type": "cell-based, human", "description": "Production of EGF and TGF - alpha was not affected by these inducers. Immunocytochemistry. […] The expression of myconcoproteins was inversely related to cell proliferation CA 125, however, seems to be unrelated to cell growth."}, "[10]": {"tested_on": "chemistry transformed fibroblasts", "test": "Phenotype of chemically transformed fibroblasts", "type": "cell-based"}, "[11]": {"tested_on": "virus transformed mice kidney cell-lines", "test": "Growth pattern of virus transformed kidney cell-lines", "type": "cell-based", "conditions": "growth medium supplemented by 0.5% DMF", "description": "as §4"}, "Tyrosine Kinase": {"tested_on": "Tyrosine Kinase", "test": "Tyrosine Kinase Assay kit (non-radioactive # 1534505, Boehringer Mannheim)", "type": "biochemical", "conditions": "values only in Appendix images", "description": "The results are set out in the Appendix below. [formula] [formula]"}, "[12]": {"tested_on": "HOC-7 ovarian adenocarcinoma cells", "test": "Immunocytochemistry of HOC-7 cells", "type": "cell-based, human", "description": "as §1, §2"}, "c-myc oncogenes": {"tested_on": "c-myc oncogenes", "test": "c-myc expression in HL-60 cells", "type": "cell-based", "conditions": "HL-60 human promyelocytic leukemia cells", "description": "as §4"}}, "note": "Read-outs that look alike come from different tables or passages of the source.", "data": [{"compound": "CN(C)C=O", "note": "[DMF, dimethylformamide]", "values": [{"measurement": "expression of EGF - receptor, CA 125, Fibronectin, and desmoplakins I and II", "setting": "[1]", "result": "dose dependently induced"}, {"measurement": "acute dermal, oral and inhalation toxicity", "setting": "[2]", "result": "low"}, {"measurement": "anchorage-independent growth", "setting": "EGF-transfected cells", "result": "inhibition"}, {"measurement": "normal cellular morphology and growth rate in monolayer culture", "setting": "EGF-transfected cells", "result": "restoration"}, {"measurement": "proliferation-associated nucleolar protein B23", "setting": "EGF-transfected cells", "result": "down-regulation"}, {"measurement": "secretion of EGF", "setting": "FR3T3 fibroblasts; 2 transfected lines as well as control cells", "result": "increased"}, {"measurement": "EGF binding", "setting": "FR3T3 fibroblasts; transfected cell lines", "result": "in neither case did DMF alter"}, {"measurement": "expression of myc onco-proteins", "setting": "myc onco-proteins", "result": "inhibited"}, {"measurement": "NOAEL for developmental effects", "setting": "[3]", "result": 150, "unit": "mg/m^3"}, {"measurement": "recurrence of tumours", "setting": "Karposi Sarcoma; after 18 months", "result": "no tumours had recurred"}, {"measurement": "tumours", "setting": "Karposi Sarcoma; after six treatments", "result": "disappeared"}, {"measurement": "tumours", "setting": "Karposi Sarcoma; after two weekly treatments, 7.04g patches for 8 hours, seven tumours", "result": "faded"}, {"measurement": "effect on DNA sequences", "setting": "DNA sequences", "result": "conformational changes and hypomethylation"}, {"measurement": "NOAEL for developmental effects", "setting": "[4]", "result": 44, "unit": "mg/kg body weight"}, {"measurement": "temperature of the tumour", "setting": "[5]; during patch treatment", "result": "dropped to normal"}, {"measurement": "tumour reduced in size", "setting": "[5]; patches 6 hours on alternate days for one week, then one week break", "result": "1 - 2 mm per week"}, {"measurement": "patient's appetite", "setting": "[5]; three days after the treatment began", "result": "appetite returned"}, {"measurement": "tumour diameter", "setting": "[5]; two days after first 6 hour patch, 32 cm before treatment", "result": "29,5 cm"}, {"measurement": "tumour circumference", "setting": "[5]; two days after first 6 hour patch, 52 cm before treatment", "result": 51, "unit": "cm"}, {"measurement": "NOAEL (No-Adverse-observed-Effect-Level)", "setting": "[6]", "result": "could not be established"}, {"measurement": "fibronectin expression", "setting": "ras-transfected cells; ras-3 cells", "result": "did not restore"}, {"measurement": "growth in monolayer culture or under anchorage-independent growth conditions", "setting": "ras-transfected cells; ras-transfected cells, compared with EGF-transfected cells", "result": "much slighter effect"}, {"measurement": "DMF blood level obtained", "setting": "[7]; after loss by evaporation", "result": 100, "unit": "ppm"}, {"measurement": "DMF blood level delivered in theory", "setting": "[7]; theoretical", "result": "125 - 135 ppm"}, {"measurement": "toxicity, subcutaneously as compared with oral administration", "setting": "[8]", "result": "5 - 10 times lower"}, {"measurement": "liver enzymes", "setting": "[9]", "result": "does not result in raised liver enzymes"}, {"measurement": "serious adverse events", "setting": "[9]", "result": "no serious adverse events"}, {"measurement": "toxicity", "setting": "[9]", "result": "non-toxic"}, {"measurement": "cancer", "setting": "non-Hodgkins Lymphoma; after eight treatments, 7.04g patches for 8 hours, 8 weeks", "result": "disappeared"}, {"measurement": "recurrence of cancer", "setting": "non-Hodgkins Lymphoma; eight months later", "result": "had not recurred"}, {"measurement": "bleeding", "setting": "Mama Carcinoma", "result": "bleeding disappeared"}, {"measurement": "pain", "setting": "Mama Carcinoma", "result": "less pain"}, {"measurement": "tumour shrunk in diameter", "setting": "Mama Carcinoma; 3 weeks, 53 cm before treatment", "result": 7, "unit": "cm"}, {"measurement": "cell growth", "setting": "HOC-7 cells; HOC-7 cells", "result": "growth inhibition"}, {"measurement": "effectiveness in changing the immunophenotype of HOC-7 cells", "setting": "HOC-7 cells; compared with TGF-beta 1", "result": "more effective"}, {"measurement": "phenotype of transformed fibroblasts", "setting": "[10]", "result": "restoration of a nontransformed phenotype"}, {"measurement": "random piling, non-contact-inhibited growth pattern", "setting": "[11]", "result": "marked alteration"}, {"measurement": "effect of DMF on PTK", "setting": "Tyrosine Kinase", "result": "Tyrosine Kinase inhibitor"}, {"measurement": "cytoplasmic and surface labeling for CA 125 and disposition of fibronectin into the extracellular matrix", "setting": "[12]", "result": "stimulated"}, {"measurement": "membrane staining for epidermal growth factor (EGF) receptor and for desmoplakins I and II", "setting": "[12]", "result": "elevated"}]}, {"compound": "C[S+](C)[O-]", "note": "[DMSO, dimethylsulfoxide]", "values": [{"measurement": "reduced expression of c-myc oncogenes", "setting": "c-myc oncogenes", "result": "80 to 90", "unit": "%"}]}]}
